Results on ten compounds are retold here after US11078216B2, “Bisaryl amides as NRF2 activators” (GLAXOSMITHKLINE INTELLECTUAL PROPERTY DEVELOPMENT LIMITED, priority 2016, dated 2021).

Structures are written as SMILES.

What is called EC50 is the concentration needed to bring the measured effect to its halfway point.

In assay [1] the test system is rats. To be noted: rats on a choline-deficient L-amino acid-defined diet; cited from earlier work.
The test system of assay [2] is COPD macrophages and alveolar macrophages from cigarette smoke-exposed mice. The note with it: cited from earlier work.
Assay [3] relates to rats. To be noted: cerebral ischemia-reperfusion model; cited from earlier work.
A further assay concerns mice. The note with it: NRF2 wild-type vs KO mice after administration; cited from earlier work.
Assay [4] deals with NRF2 (NQO1 activity as marker for NRF2 activation), BEAS-2B cells. Nature of the assay: BEAS-2B NQO1 MTT Assay. Type of assay: cell-based. To be noted: Homo sapiens, EC50 of NQO1 specific activity induction, 48 hours incubation, read-out: EC50. The gist of the method:
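BEAS-2B cells were exposed to compound for 48 h at 37° C, 5% CO2, then lysed. NQO1 activity was measured kinetically by MTT reduction at 570 nm over 30 minutes; EC50 came from 3-parameter fit of Delta OD/min versus log concentration.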

For `Cc1c(-c2cnccn2)ssc1=S` [oltipraz], the “progression of histologic abnormalities, especially hepatic fibrosis” value in the assay with rats [1] was “significantly attenuated”.

With `C[S+]([O-])CCCCN=C=S` (stereo not drawn) [Sulforaphane], the “expression of Macrophage Receptor with Collagenous structure (MARCO)” value in assay [2] (COPD macrophages and alveolar macrophages from cigarette smoke-exposed mice) is “increases”. In addition, in assay [2] (Pseudomonas aeruginosa, non-typable Haemophilus influenzae, ex vivo and in vivo), the “bacterial phagocytosis and bacterial clearance” value was “improving”. With `O=C(NCc1ccccn1)Nc1nnc(-c2ccco2)o1` [NK-252], the “progression of histologic abnormalities, especially hepatic fibrosis” value in the assay with rats [1] is reported as “significantly attenuated”. Consider `CC(C)(C)c1cc(O)ccc1O` [tBHQ, tert-butylhydroquinone], for which the cortical damage entry with rats [3] is “reduced cortical damage”. The cortical glutathione levels result with mice was “increased in NRF2 wild-type but not KO mice”. With `CC[C@@H]1CN(Cc2cc([C@@H](c3ccc4c(nnn4CC)c3C)C(C)(C)C(=O)NCC(=O)O)ccc2C)S(=O)(=O)c2ccccc2O1` [Example 200, 2-((S)-3-(3-(((R)-4-ethyl-1,1-dioxido-3,4-dihydro-2H-benzo[b][1,4,5]oxathiazepin-2-yl)methyl)-4-methylphenyl)-3-(1-ethyl-4-methyl-1H-benzo[d][1,2,3]triazol-5-yl)-2,2-dimethylpropanamido)acetate], the EC50 in assay [4] lay within 10 to 100 nM.

As for `CC[C@@H]1CN(Cc2cc([C@H](c3cc(OC)c4c(nnn4CC)c3C)C(C)(C)C(=O)Nc3cccnc3)ccc2C)S(=O)(=O)c2ccccc2O1` [Example 60, (R)-3-(3-(((R)-4-Ethyl-1,1-dioxido-3,4-dihydro-2H-benzo[b][1,4,5]oxathiazepin-2-yl)methyl)-4-methylphenyl)-3-(1-ethyl-7-methoxy-4-methyl-1H-benzo[d][1,2,3]triazol-5-yl)-2,2-dimethyl-N-(pyridin-3-yl)propanamide], in assay [4], the EC50 was 100 to 1000 nM. Still for that read-out and setting: next, `CC[C@@H]1CN(Cc2cc([C@H](CC(=O)Nc3cncc4ccccc34)c3ccc4c(nnn4CC)c3C)ccc2C)S(=O)(=O)c2cccnc2O1` [Example 18, (S)-3-(3-(((R)-4-Ethyl-1,1-dioxido-3,4-dihydro-2H-pyrido[2,3-d][1,4,5]oxathiazepin-2-yl)methyl)-4-methylphenyl)-3-(1-ethyl-4-methyl-1H-benzo[d][1,2,3]triazol-5-yl)-N-(isoquinolin-4-yl)propanamide]: 10 to 100 nM; `CC[C@@H]1CN(Cc2cc([C@@H](c3ccc4c(nnn4CC)c3C)C(C)(C)NC(=O)c3cnc(N4CCN(C)CC4)nc3)ccc2C)S(=O)(=O)c2ccccc2O1` [Example 165, N-((S)-1-(3-(((R)-4-Ethyl-1,1-dioxido-3,4-dihydro-2H-benzo[b][1,4,5]oxathiazepin-2-yl)methyl)-4-methylphenyl)-1-(1-ethyl-4-methyl-1H-benzo[d][1,2,3]triazol-5-yl)-2-methylpropan-2-yl)-2-(4-methylpiperazin-1-yl)pyrimidine-5-carboxamide]: 10 to 100 nM.

In the case of `CC[C@@H]1CN(Cc2cc([C@H](CC(=O)Nc3cnc(OC)nc3)c3ccc4c(nnn4CC)c3C)ccc2C)S(=O)(=O)c2cccnc2O1` [Example 123, (S)-3-(3-(((R)-4-Ethyl-1,1-dioxido-3,4-dihydro-2H-pyrido[2,3-b][1,4,5]oxathiazepin-2-yl)methyl)-4-methylphenyl)-3-(1-ethyl-4-methyl-1H-benzo[d][1,2,3]triazol-5-yl)-N-(2-methoxypyrimidin-5-yl)propanamide], in assay [4], the EC50 fell in the range of 10 to 100 nM. Take `CC[C@@H]1CN(Cc2cc([C@@H](c3cc(OC)c4c(nnn4CC)c3C)C(C)(C)C(=O)Nc3cccnc3)ccc2C)S(=O)(=O)c2ccccc2O1` [Example 64, (S)-3-(3-(((R)-4-Ethyl-1,1-dioxido-3,4-dihydro-2H-benzo[b][1,4,5]oxathiazepin-2-yl)methyl)-4-methylphenyl)-3-(1-ethyl-7-methoxy-4-methyl-1H-benzo[d][1,2,3]triazol-5-yl)-2,2-dimethyl-N-(pyridin-3-yl)propanamide]: the EC50 in assay [4] is 1 to 10 nM.
